Assay results reported in US11014902B2, “MYC G-quadruplex stabilizing small molecules and their use” (The United States of America, as represented by the …, priority 2015, dated 2021).

What was measured:
[1] = tested on: MYC expression in L363 cells; experiment: Gene expression analysis (Nanostring, qPCR), MYC; format: cell-based, human; conditions: for c-Myc expression (qPCR): L363 cells
Procedure: (§1) Gene expression analysis was performed on a panel of 770 cancer-associated genes in a multiplexed (nanostring) transcriptional assay. In addition to c-MYC itself, several c-Myc target genes were included in the panel, as were a number of other quadruplex-driven genes. […] Additionally, a third data set was collected comparing Compound 1 treatment to JQ-1 (a BET-bromodomain inhibitor) and quarfloxin (another quadruplex-binding small molecule).
(§2) The effects of Compound 1 on a number of known quadruplex-driven genes in the panel were examined further (FIG. 6). Expression levels of MYC, RB1, VEGFA, KRAS, and HIF1α, all of which are reported to be under the control of promoter G4s, and are expressed in L363 cells, were included in the panel of genes evaluated by Nanostring as discussed above. […] These changes in gene expression are in line with biophysical measurements of compound affinity. Corresponding data showing similar results is presented for Compounds 1 and 23 in FIGS. 14A and 14B. […] These observations further highlight the ability of Compound 1 and Compound 23 to specifically target the expression of c-Myc and related pathways.
(§3) The phenotype for c-MYC genetic knockdown in multiple myeloma was achieved through lentiviral transduction of shRNA for c-MYC, derived from the spinoculation of 293T cells and plasmids grown in STBL3 E. coli, and isolated with the Qiagen Plasmid Midi Kit. Aliquots of the plasmids were generously provided by Art Shaffer. RNA of treated myeloma cells at designated time points was isolated with the Qiagen RNeasy kit, and used with the nCounter Human Cancer Reference Kit (NanoString Technologies), surveying changes in expression for […] cancer-related human genes and 6 reference genes. Quantitative changes in expression were analyzed and grouped in the form of a heat map using the programming language, R. All other quantitative statistical packing was performed in GraphPad Prism.

[2] = tested on: c-MYC exon 2 transcription in CA46 cells; experiment: Exon specific qPCR assay, exon 2; format: cell-based, human; conditions: 10 μM, up to 48 hours
Description: To confirm a G4 specific mechanism of action in cells, the CA46 Burkitt's Lymphoma line was used in an exon-specific assay, as previously reported (Boddupally, et al., J Med Chem 2012, 55, 6076). For most cell lines, 85-90% of c-Myc expression is controlled by the G4 located prior to exons 1 and 2 in the promoter. Furthermore, expression predominantly occurs following exon 2, due to a thousand-fold increase in transcription from this allele (Brown, et al., J Biol Chem 2011, 286, 41018). The CA46 Burkitt's Lymphoma cell line is an exception to this trend due to the existence of a chromosome (8:14) (Pelicci, et al., Proc Natl Acad Sci USA 1986, 83, 2984) translocation between exons 1 and 2, leaving exon 1 under G4 control. As a result, c-Myc expression from exon 2 is G4 independent (FIG. 3B). This renders the overall cell line resistant to G4-mediated c-Myc inhibition at the RNA and protein level, and proliferation should be uninhibited by G4-stabilizing agents.
CA46 cells were treated with ligands of interest or DMSO control at designated time points, washed in PBS, flash frozen, and RNA isolated using the Qiagen RNeasy Kit. RNA was quantified by NanoDrop, and 0.5 μg was reverse transcribed for use in qPCR. […]

[3] = tested on: U251; experiment: NCI-60 cell growth (SRB); format: cell-based; conditions: U251, CNS Cancer; 10 μM, 48 hours
Procedure: (§4) This example illustrates that Compounds 1 and 23 can be used in inhibit the growth of c-Myc expressing cancer cell lines in vitro. The NCI-60 panel of cancer cell lines (see Shoemaker, Nat. Rev. Cancer, 6, 813-823, 2006, and dtp.cancer.gov/discovery_development/nci-60/) was assayed for cell growth in the presence of 10 μM Compound 1 or Compound 23 for 48 hours. At 48 hours, the assay was terminated by fixation with TCA and determination of relative cell counts by addition of Sulforhodamine B (SRB, see Alley et al., Cancer Research, 48: 589-601, 1988.). Growth percent was determined by comparison of SRB reading of a duplicate plate of cells taken at the time of compound addition to the SRB reading at the termination of the treatment. The following table provides a summary of the percent of growth of each cell line in the panel compared to control (no treatment), as well as the mean delta and range of percent growth compared to control across the panel of cell lines for each treatment condition.

[4] = tested on: SK-OV-3; experiment: NCI-60 cell growth (SRB); format: cell-based; conditions: SK-OV-3, Ovarian Cancer; 10 μM, 48 hours
Procedure: as §4

[5] = tested on: IGROV1; experiment: NCI-60 cell growth (SRB); format: cell-based; conditions: IGROV1, Ovarian Cancer; 10 μM, 48 hours
Procedure: as §4

[6] = tested on: NCI-H226; experiment: NCI-60 cell growth (SRB); format: cell-based; conditions: NCI-H226, Non-Small Cell Lung Cancer; 10 μM, 48 hours
Procedure: as §4

[7] = tested on: wild type Pu27 sequence; experiment: PCR stop assay, wild type sequence; format: biochemical; conditions: concentrations comparable to the Kd
[8] = tested on: NCI-60 panel of cancer cell lines; experiment: NCI-60 cell growth (SRB), summary across the panel; format: cell-based; conditions: 10 μM, 48 hours; for Growth Percent, Delta: delta across the panel; for Growth Percent, Mean: mean across the panel; for Growth Percent, Range: range across the panel
Procedure: as §4

[9] = tested on: RB1, VEGFA, KRAS, HIF1α, BCL2 expression in L363 cells; experiment: Gene expression analysis (Nanostring, qPCR), other G4-associated genes; format: cell-based, human; conditions: for expression of other G-quadruplex containing genes (qPCR): L363 cells
Procedure: as §1, §2, §3

[10] = tested on: c-Myc protein in H1299 cells; experiment: c-Myc protein expression by Western blot, H1299; format: cell-based, human; conditions: 10 μM
Procedure: The effect of Compound 23 on the expression of c-Myc protein in the human lung cancer cell lines H1299 and H157 was also assayed. H1299 and H157 cells were treated with 10 μM Compound 23 and c-Myc protein expression levels quantified by Western blot. In Compound 23-treated H1299 cells, c-Myc protein expression levels were approximately 55% compared to untreated control cells. In Compound 23-treated H157 cells, c-Myc protein expression levels were approximately 74% compared to untreated control cells.

[11] = 48 hours, 10 μM BRACO-19, 10 μM Compound 1, 7.5 μM Compound 23

Structure (SMILES)	MYC expression (nanostring) ([1]; 10 μM, 2 h to 48 h)	MYC expression (qPCR) ([1]; 5, 10 or 12.5 μM, 48 hours)	c-Myc expression (qPCR) [1, 11]	transcription from exon 2 [2]	Growth Percent [3] [%]	Growth Percent [4] [%]	Growth Percent [5] [%]	Growth Percent [6] [%]	inhibition of PCR amplification [7]	Growth Percent, Delta [8] [%]	Growth Percent, Mean [8] [%]	Growth Percent, Range [8] [%]	expression of other G4-associated genes (nanostring) ([9]; 10 μM, 2 h to 48 h)	expression of other genes (qPCR) ([9]; 5, 10 or 12.5 μM, 48 hours)	expression of other G-quadruplex containing genes (qPCR) [9, 11]	c-Myc expression (qPCR) ([1]; 5 μM, 24 or 48 hours)	c-Myc protein expression levels compared to untreated control cells [10]	expression of other G-quadruplex containing genes (qPCR) ([9]; 5 μM, 24 or 48 hours)
Cc1ccc(NC(=O)c2c(C)oc3ccc(O)c(CN4CCCCCC4)c23)cc1 [Compound 1]	substantially reduced	greatly reduced	reduced c-Myc expression	unaffected	88.66	100.26	81.22	85.66	dose-dependent inhibition	32.50	88.39	60.47	minimally affected	minimally affected	minimally affecting expression of other G-quadruplex containing genes	–	–	–
Cc1oc2ccc(O)c(CN3CCCCCC3)c2c1C(=O)Nc1ccc(C(F)(F)F)cc1 [Compound 23]	–	–	reduced c-Myc expression	–	55.07	76.35	54.25	72.45	–	67.00	58.56	94.23	–	–	minimally affecting expression of other G-quadruplex containing genes	reduced c-Myc expression	approximately 55%	minimally affecting expression of other G-quadruplex containing genes
